Assay results: PMC12655351, “Synthesis and Anticancer Activity Evaluation of New 5-((5-Nitrofuran-2-yl)allylidene)-2-thioxo-4-thiazolidinones” (Pharmaceuticals, 2025)
Where “and” joins values, the source holds several entries; their conditions need not be identical. Identical values can stand only once. Like-named read-outs stand apart in the source and are kept apart here.

Legend:
HOP-92 = assay: NCI-60 SRB screen; conditions: HOP-92, 48 h
MDA-MB-231/ATCC = conditions: 48 h
AGS = assay: MTT assay; type: cell-based; conditions: Homo sapiens, 24 h of treatment
Procedure: (§1) The NCI-60 screening protocol utilizes the sulforhodamine B (SRB) assay following 48 h of compound exposure. […] The MTT assay was performed on eleven cancer cell lines: human breast cancer (MDA-MB-231, MCF-7, HCC 1954), human gastric cancer (AGS), human colorectal adenocarcinoma (HT-29, DLD-1, HCT 116), human neuroblastoma (SH SY5Y), and human leukemia (JURKAT, RMPI 8866, K-562) cell lines. The study was conducted in triplicate at the following seven concentrations: 0.62, 1.25, 2.5, 5, 10, 20, and 40 μM.
(§2) The selected cell lines were seeded into 96-well plates and cultured in accordance with the previously described methodology. Then, the cells were treated with all tested compounds and DOX at concentrations of 0.625, 1.25, 2.5, 5.0, 10.0, 20.0, and 40.0 μM for 24 h. A solution of 3-(4,5-dimethyl-2-thiazolyl)-2,5-diphenyl-2H-tetrazolium bromide (Sigma-Aldrich, St. Louis, MO, USA) in phosphate-buffered saline without calcium and magnesium (Corning, Kennebunk, ME, USA) at a concentration of 5 mg/mL was used to carry out MTT assay. After incubation, 20 μL of the prepared MTT solution was added, and then the cells were incubated at 37 °C for two hours. Afterwards, the cells were lysed using 100 μL of lysing buffer (comprising 25 mM HCl, 2% acetic acid, 3% DMF, and 5% SDS, with a pH of 4.7). The absorbance was determined at a wavelength of 570 nm using an Absorbance 96 microplate reader (Byonoy GmbH, Hamburg, Germany).

Jurkat = assay: MTT assay; type: cell-based; conditions: Homo sapiens, 24 h of treatment
Procedure: as §1, §2

MCF-7 = assay: MTT assay; type: cell-based; conditions: Homo sapiens, MCF7; MCF-7, 24 h of treatment
Procedure: as §1, §2

MDA-MB-231 = assay: MTT assay; type: cell-based; conditions: Homo sapiens; MDA-MB-231, 24 h of treatment
Procedure: as §1, §2

HT-29 = assay: MTT assay; type: cell-based; conditions: Homo sapiens; HT-29, 24 h of treatment
Procedure: as §1, §2

HCT-116 = assay: MTT assay; type: cell-based; conditions: Homo sapiens; HCT-116, 24 h of treatment
Procedure: as §1, §2

SH SY5Y = assay: MTT assay; type: cell-based; conditions: Homo sapiens, 24 h of treatment
Procedure: as §1, §2

K562 = assay: MTT assay; type: cell-based; conditions: Homo sapiens; K562, 24 h of treatment
Procedure: as §1, §2

HCC-1954 = assay: MTT assay; type: cell-based; conditions: Homo sapiens, HCC1954; HCC-1954, 24 h of treatment
Procedure: as §1, §2

RPMI 8866 = assay: MTT assay; type: cell-based; conditions: Homo sapiens; RPMI 8866, 24 h of treatment
Procedure: as §1, §2

DLD-1 = assay: MTT assay; type: cell-based; conditions: Homo sapiens; DLD-1, 24 h of treatment
Procedure: as §1, §2

T-47D = conditions: 48 h
PC-3 = conditions: PC-3, 48 h
HL-60(TB) = assay: NCI-60 SRB screen
SK-OV-3 [1] = assay: cells; conditions: Homo sapiens, SK-OV-3, 48 h; for CC50: read-out: LC50, SK-OV-3, 48 h
SK-OV-3 [2] = test system: SK-OV-3
OVCAR-4 = assay: cells; conditions: Homo sapiens, OVCAR-4, 48 h; for CC50: read-out: LC50, OVCAR-4, 48 h
CCRF-CEM = conditions: 48 h
M14 = assay: NCI-60 SRB screen; conditions: M14, 48 h
NCI-H460 = assay: NCI-60 SRB screen; conditions: NCI-H460, 48 h; for CC50: read-out: LC50
NCI-H322M = assay: NCI-60 SRB screen; conditions: 48 h; for CC50: read-out: LC50, NCI-H322M, 48 h
LOX IMVI = conditions: 48 h; for growth GP / TGI: LOX IMVI; for growth GP: 10 μM
SK-MEL-5 = conditions: for growth GP: SK-MEL-5, 10 μM
Ovarian cancer = assay: cells; conditions: Homo sapiens; for GI50: read-out: MG_MID GI50; for CC50: read-out: MG_MID LC50
SF-539 = conditions: for growth GP: SF-539, 10 μM, 48 h
Prostate Cancer = Prostate Cancer subpanel
Colon cancer = assay: NCI-60 SRB screen, subpanel; conditions: for MG_MID TGI: Colon cancer subpanel
HT29 = assay: cells; conditions: Homo sapiens, HT-29, 48 h
[3] = Homo sapiens, read-out: LC50, HOP-92, 48 h

Q: What does the source list for `O=C(O)CCN1C(=O)/C(=C/C=C/c2ccc([N+](=O)[O-])o2)SC1=S` [12b, 3-((Z)-5-((E)-3-(5-Nitrofuran-2-yl)allylidene)-4-oxo-2-thioxothiazolidin-3-yl)propanoic acid]?
A: TGI (HOP-92): 3.50 µM; GI50 (HOP-92; Homo sapiens): 1.83 µM; CC50 (HOP-92; [3]): 6.72 µM; TGI (MDA-MB-231/ATCC): 3.24 µM; IC50 (AGS): 3.65 µM; IC50 (Jurkat): 1.77 µM; IC50 (MCF-7): 3.01 µM; IC50 (MDA-MB-231): 12.9 µM; IC50 (HT-29): 8.56 µM; IC50 (HCT-116): 3.68 µM; IC50 (SH SY5Y): 13.1 µM; IC50 (K562): 7.15 µM; IC50 (HCC-1954): 4.86 µM; IC50 (RPMI 8866): 7.78 µM; IC50 (DLD-1): 3.31 µM; TGI (T-47D): 3.55 µM; TGI (DU-145; DU-145, 48 h): 10.6 µM; TGI (PC-3): 10.6 µM; TGI (HL-60(TB); HL-60(TB), 48 h): 3.30 µM; GI50 (HL-60(TB); Homo sapiens, HL-60, 48 h, HL-60(TB), 48 h): 1.28 µM; GI50 (SK-OV-3 [1]): 4.7 µM; CC50 (SK-OV-3 [1]): 43.7 µM; TGI (SK-OV-3 [2]; SK-OV-3, 48 h): 16.1 µM; GI50 (OVCAR-4): 1.79 µM; CC50 (OVCAR-4): 8.07 µM; TGI (CCRF-CEM): 0.87 µM; GI50 (M14; Homo sapiens): 1.48 µM; CC50 (M14; Homo sapiens, read-out: LC50, M14, 48 h): 6.31 µM; TGI (M14): 3.05 µM; GI50 (NCI-H460; Homo sapiens): 1.33 µM; CC50 (NCI-H460; Homo sapiens): 6.46 µM; TGI (NCI-H460): 2.93 µM; TGI (NCI-H322M): 19.8 µM; GI50 (NCI-H322M; Homo sapiens): 7.06 µM; CC50 (NCI-H322M; Homo sapiens): 44.7 µM; growth GP (LOX IMVI): -95.70%; TGI (LOX IMVI): 1.86 µM; growth GP (SK-MEL-5; 48 h): -97.62%; TGI (SK-MEL-5; SK-MEL-5, 48 h): 2.24 µM; GI50 (Ovarian cancer): 2.05 µM; CC50 (Ovarian cancer): 17.7 µM; growth GP (SF-539): -96.95%; TGI (SF-539; SF-539, 48 h): 3.65 µM; MG_MID TGI (Prostate Cancer): 10.6 µM; MG_MID TGI (Colon cancer): 2.93 µM

Q: Which results are given for `O=C(O)CCCN1C(=O)/C(=C/C=C/c2ccc([N+](=O)[O-])o2)SC1=S` [13b, 4-((Z)-5-((E)-3-(5-Nitrofuran-2-yl)allylidene)-4-oxo-2-thioxothiazolidin-3-yl)butanoic acid]?
A: CC50 (HOP-92; [3]): 6.33 µM; CC50 (HOP-92; read-out: LC50): 4.24 µM; growth GP (MDA-MB-231/ATCC; 10 μM): -95.61%; IC50 (AGS): 2.1 µM; IC50 (Jurkat): 0.5 µM; IC50 (MCF-7): 1.63 µM; IC50 (MDA-MB-231): 8.73 µM; IC50 (HT-29): 4.39 µM; IC50 (HCT-116): 3.97 µM; IC50 (SH SY5Y): 8.41 µM; IC50 (K562): 3.57 µM; IC50 (HCC-1954): 3.12 µM; IC50 (RPMI 8866): 3.94 µM; IC50 (DLD-1): 3.18 µM; GI50 (T-47D): 0.23 µM; growth GP (DU-145; DU-145, 10 μM, 48 h): -99.43%; GI50 (DU-145; DU-145, 48 h): 1.15 µM; TGI (DU-145; DU-145, 48 h): 2.32 µM and 2.83 µM; CC50 (DU-145; human, 48 h): 7.01 µM; GI50 (PC-3): 0.4 µM; TGI (PC-3): 3.10 µM and 2.02 µM; CC50 (HL-60(TB); Homo sapiens, HL-60, 48 h, read-out: LC50, HL-60(TB), 48 h): > 100 µM; GI50 (HT29; HT29, 48 h): 0.45 µM; CC50 (HT29; read-out: LC50, HT29, 48 h): 5.44 µM; GI50 (SK-OV-3 [1]): 2.73 µM; CC50 (SK-OV-3 [1]): 28.1 µM; GI50 (SK-OV-3 [2]; SK-OV-3, 48 h): 2.18 µM; TGI (SK-OV-3 [2]; SK-OV-3, 48 h): 7.44 µM and 13.1 µM; CC50 (SK-OV-3 [2]; human, 48 h): 39.4 µM; GI50 (OVCAR-4): 1.16 µM; CC50 (OVCAR-4): 5.75 µM; GI50 (CCRF-CEM): 0.12 µM; TGI (CCRF-CEM): 0.82 µM and 0.78 µM; GI50 (NCI-H460; Homo sapiens): 0.63 µM; CC50 (NCI-H460; Homo sapiens): 4.94 µM; GI50 (NCI-H460): 0.33 µM; TGI (NCI-H460): 1.99 µM and 1.39 µM; GI50 (NCI-H322M): 1.97 µM; TGI (NCI-H322M): 8.09 µM and 5.50 µM; GI50 (NCI-H322M; Homo sapiens): 2.52 µM; CC50 (NCI-H322M; Homo sapiens): 28.3 µM; growth GP (LOX IMVI): -96.12%; TGI (LOX IMVI): 0.42 µM and 0.39 µM; CC50 (LOX IMVI; human): 0.81 µM; growth GP (SK-MEL-5; 48 h): -98.67%; GI50 (SK-MEL-5; SK-MEL-5, 48 h): 1.21 µM; TGI (SK-MEL-5; SK-MEL-5, 48 h): 1.97 µM and 2.68 µM; CC50 (SK-MEL-5; human, 48 h): 5.96 µM; GI50 (Ovarian cancer): 0.96 µM; CC50 (Ovarian cancer): 13.2 µM; growth GP (SF-539): -98.91%; MG_MID TGI (Prostate Cancer): 2.57 µM; MG_MID TGI (Colon cancer): 1.35 µM; GI50 (Colon cancer; Homo sapiens, read-out: MG_MID GI50): 0.52 µM; CC50 (Colon cancer; Homo sapiens, read-out: MG_MID LC50): 11.9 µM
